Measured values from PubChem BioAssay (NCI).
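These data come from cells grown in 96-well plates and exposed to compound for 48 hours at five concentrations. TGI: total growth inhibition.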

Legend:
Test in all cases: inhibition of tumour cell growth, NCI panel, 48 h
[1] = test system: SK-MEL-2 melanoma
[2] = test system: HCT-116 colon
[3] = test system: HL-60(TB) leukemia
[4] = test system: A498 renal
[5] = test system: KM12 colon
[6] = test system: OVCAR-5 ovarian
[7] = test system: UACC-62 melanoma
[8] = test system: LOX IMVI melanoma
[9] = test system: SNB-19 CNS
[10] = test system: SN12C renal
[11] = test system: MOLT-4 leukemia
[12] = test system: XF 498 CNS
[13] = test system: SNB-75 CNS
[14] = test system: U251 CNS
[15] = test system: RXF-631 renal
[16] = test system: SW-620 colon
[17] = test system: NCI-H460 lung
[18] = test system: M19-MEL melanoma
[19] = test system: K-562 leukemia
[20] = test system: HCT-15 colon
[21] = test system: LXFL 529 NSCLC
[22] = test system: UACC-257 melanoma
[23] = test system: HOP-92 NSCLC
[24] = test system: EKVX NSCLC
[25] = test system: RPMI-8226 leukemia
[26] = test system: OVCAR-4 ovarian
[27] = test system: NCI-H23 lung
[28] = test system: TK-10 renal
[29] = test system: KM20L2 colon
[30] = test system: NCI-H522 lung
[31] = test system: HT29 colon
[32] = test system: SK-MEL-5 melanoma
[33] = test system: CAKI-1 renal
[34] = test system: CCRF-CEM leukemia
[35] = test system: DMS 114 small cell lung
[36] = test system: A549 NSCLC
[37] = test system: HOP-62 NSCLC
[38] = test system: HCC-2998 colon
[39] = test system: SF-295 CNS
[40] = test system: IGROV1 ovarian
[41] = test system: COLO 205 colon
[42] = test system: SK-OV-3 ovarian
[43] = test system: SF-539 CNS
[44] = test system: DLD-1 colon
[45] = test system: ACHN renal
[46] = test system: M14 melanoma
[47] = test system: OVCAR-8 ovarian
[48] = test system: SF-268 CNS
[49] = test system: SK-MEL-28 melanoma
[50] = test system: HOP-18 NSCLC
[51] = test system: RXF 393 renal
[52] = test system: UO-31 renal
[53] = test system: MALME-3M melanoma
[54] = test system: 786-0 renal
[55] = test system: SR leukemia
[56] = test system: SNB-78 CNS
[57] = test system: NCI-H226 lung

Measured: TGI

CN(C)CCc1ccc(Cl)cc1Cl
not listed: [56] | [57]
> 100 µM: all other assays above

N#C/C(=C/c1ccco1)C(=O)c1ccccc1
not listed: [9] | [29] | [37] | [51]
> 100 µM: all other assays above
